Reference: patent publication US20250114336A1, “USE OF ANTI-RETROVIRAL PROTEASE INHIBITORS FOR THE TREATMENT OF AMYOTROPHIC LATERAL SCLEROSIS (ALS)” (The Regents of the University of Colorado, a body corporate, priority 2023, published 2025)
“Also recorded” adds a separate entry of the source.

Target: T1, human PEG10 (Homo sapiens, UniProt Q86TG7)
T1 construct: expressed in transfected cells; host or cells: HEK293
T1 sequence (Q86TG7 1-708): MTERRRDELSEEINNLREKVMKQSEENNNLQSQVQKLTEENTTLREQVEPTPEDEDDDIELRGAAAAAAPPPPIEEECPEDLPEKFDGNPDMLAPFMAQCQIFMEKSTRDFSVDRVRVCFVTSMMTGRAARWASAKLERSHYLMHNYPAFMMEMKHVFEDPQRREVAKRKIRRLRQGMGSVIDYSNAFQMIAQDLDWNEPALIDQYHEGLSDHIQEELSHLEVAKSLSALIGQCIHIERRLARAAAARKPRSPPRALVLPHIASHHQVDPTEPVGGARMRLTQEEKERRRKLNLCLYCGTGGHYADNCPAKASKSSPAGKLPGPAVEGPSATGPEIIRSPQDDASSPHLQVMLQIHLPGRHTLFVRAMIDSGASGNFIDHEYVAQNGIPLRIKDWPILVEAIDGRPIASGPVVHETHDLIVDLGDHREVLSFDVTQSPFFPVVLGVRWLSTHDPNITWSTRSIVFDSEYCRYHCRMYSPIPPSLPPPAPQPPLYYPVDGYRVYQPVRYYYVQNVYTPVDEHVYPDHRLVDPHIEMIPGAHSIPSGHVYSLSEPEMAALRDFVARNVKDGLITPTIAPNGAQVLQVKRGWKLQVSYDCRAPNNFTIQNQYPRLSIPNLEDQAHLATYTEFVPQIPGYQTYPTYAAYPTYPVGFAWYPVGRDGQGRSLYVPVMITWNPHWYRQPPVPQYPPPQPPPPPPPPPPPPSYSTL
Assay: Western blot of PEG10 abundance and self-cleavage in HEK293 cells transfected with human PEG10
Format: cell-based
Details: HEK293 cells transfected with WT human PEG10, incubated 24 hours with increasing concentrations of drug (up to 50 uM), compared to untreated
Experimental: FIG. 1: Western blot of PEG10 self-cleavage testing with antiretroviral compounds. HEK293 cells were transfected with either WT or a cleavage-incompetent mutant form of human PEG10 and incubated for 24 hours with the indicated concentrations of drug. After 24 hours, cells were lysed and imaged by western blot.
FIG. 2A-D: PEG10 abundance is decreased by ritonavir, but not indinavir. a-d) Bands identified in FIG. 1 were quantified and normalized to Tubulin for a) gag-pol, b) gag, c) CA fragment, and d) CA^NTD fragment. Shown is mean+/−SEM for four representative experiments; one sample from untreated indinavir and 50 uM of indinavir and ritonavir were not collected. Statistics were measured by One-way ANOVA with multiple comparisons to untreated; statistically significant comparisons are shown with asterisks. ANOVA summary significance is shown with straight line.
Shown is mean+/−SEM for four representative experiments; one sample from untreated indinavir and 50 uM of indinavir and ritonavir were not collected. Statistics were measured by One-way ANOVA with multiple comparisons to untreated; statistically significant comparisons are shown with asterisks. ANOVA summary significance is shown with straight line.
Applicants performed an assay using western blot to assess self-cleavage of transfected PEG10 (FIG. 1) with a negative control where the PEG10 protease is mutated. […]

CC(C)c1nc(CN(C)C(=O)N[C@H](C(=O)N[C@@H](Cc2ccccc2)C[C@H](O)[C@H](Cc2ccccc2)NC(=O)OCc2cncs2)C(C)C)cs1 [ritonavir]
PEG10 abundance (expression in the cell; bands normalized to Tubulin: gag-pol, gag, CA fragment, CA NTD fragment): decreased; also recorded: uniquely decreases PEG10 expression
Self-cleavage of PEG10 (ratios gag-pol to gag, CA fragment to gag, CA NTD fragment to gag): modestly affected; also recorded: modest effect
